Experimental data: patent US4971967A, “Quinolinecarboxylic acid derivatives, antibacterial compositions and use” (Kanebo Ltd, priority 1989, dated 1990)
≈ marks a conversion by molar mass, not a printed value. Where a name gives a salt, the structure may show the parent alone. Read-outs that look alike come from different tables or passages of the source.

Legend:
[1] = system: Shigella sonnei EW-33; assay: Antibacterial activity (MIC), Shigella sonnei EW-33; type: cell-based; settings: Shigella sonnei, EW33, Shigella sonnei EW-33, Gram -; read-out: Minimum inhibitory concentration (MIC)
Description: (§1) The compounds of the present invention (A, C, D, E, F, G, H, I, J, L, O and P) and the known compound (X) as reference were dissolved in 0.1 N aqueous sodium hydroxide to prepare a solution of 5000 μg/ml in concentration. The compounds of the present invention (B, K, M and N) and the known compound (Y) were dissolved in sterilized distilled water to prepare a solution of 5000 μg/ml in concentration. Each solution was diluted with sterilized distilled water to prepare a standard solution with a concentration of each test compound: 1000 μg/ml. The test was carried out by a method as appointed by Japan Society of Chemotherapy [cf. Chemotherapy, 29, 76-79 (1981)(TOKYO)].

[2] = system: Citrobacter freundii NIHJ 10018-68; assay: Antibacterial activity (MIC), Citrobacter freundii NIHJ 10018-68; type: cell-based; settings: Citrobacter freundii, NIHJ10018, Citrobacter freundii NIHJ 10018-68, Gram -; read-out: Minimum inhibitory concentration (MIC)
Description: as §1

[3] = system: Serratia marcescens IAM 1184; assay: Antibacterial activity (MIC), Serratia marcescens IAM 1184; type: cell-based; settings: Serratia marcescens, IAM1184, Serratia marcescens IAM 1184, Gram -; read-out: Minimum inhibitory concentration (MIC)
Description: as §1

[4] = system: Acinetobacter calcoaceticus AC 54; assay: Antibacterial activity (MIC), Acinetobacter calcoaceticus AC 54; type: cell-based; settings: AC54; Acinetobacter calcoaceticus AC 54, Gram -; read-out: Minimum inhibitory concentration (MIC)
Description: as §1

[5] = system: Staphylococcus aureus FDA 209P JC-1; assay: Antibacterial activity (MIC), S. aureus FDA 209P JC-1; type: cell-based; settings: FDA209P; Staphylococcus aureus FDA 209P JC-1, Gram +; read-out: Minimum inhibitory concentration (MIC)
Description: as §1

[6] = system: Staphylococcus aureus IID 803; assay: Effect on treatment of general infectious disease, S. aureus IID 803 (Experiment 3); type: in vivo, ddY male mice infected with Staphylococcus aureus; settings: IID803, 168 h, oral, 1 h after i.p. infection, 5.0×10^7 CFU/mouse, survival after one week
Description: Staphylococcus aureus IID 803 (5.0×10^7 CFU/mouse)
(§2) The test microorganisms were subjected to standing culture in Trypto-Soya Agar "Nissui" (made by Nissui Seiyaku K.K., Japan) at 37° C. for 16 to 18 hours. The culture was then diluted with PBS (Dulbecco's phosphate buffered saline) and mixed with an equivalent amount of 10% (w/v) Mucin (BACTO MUCIN BACTERIOLOGICAL, made by Difco Co.) to prepare a microorganism solution. The thus prepared microorganism solution (0.5 ml each) was intraperitoneally inoculated to ddY male mice (5 weeks age, weighing 25-28 g, 5 mice in each group), to infect the animals. One hour after the infection, the compound (A) or (J) of the present invention or the known compound (X) suspended in 1% (w/v) aqueous gum arabic or the known compound (Y) dissolved in sterilized distilled water was orally adiministered to mice.
(§3) The mice were daily observed for one week, and from the survival number of mice after one week, the 50% effective dose (ED50) was calculated by Weil method.

[7] = system: Staphylococcus epidermidis IAM-1296; assay: Antibacterial activity (MIC), S. epidermidis IAM-1296; type: cell-based; settings: Staphylococcus epidermidis, IAM1296, Staphylococcus epidermidis IAM-1296, Gram +; read-out: Minimum inhibitory concentration (MIC)
Description: as §1

[8] = system: Enterobacter aerogenes ATCC 13048; assay: Antibacterial activity (MIC), Enterobacter aerogenes ATCC 13048; type: cell-based; settings: Klebsiella aerogenes, ATCC13048; Enterobacter aerogenes ATCC 13048, Gram -; read-out: Minimum inhibitory concentration (MIC)
Description: as §1

[9] = system: Pseudomonas aeruginosa NCTC 10490; assay: Antibacterial activity (MIC), P. aeruginosa NCTC 10490; type: cell-based; settings: Pseudomonas aeruginosa, NCTC10490, Pseudomonas aeruginosa NCTC 10490, Gram -; read-out: Minimum inhibitory concentration (MIC)
Description: as §1

[10] = system: Pseudomonas aeruginosa IFO 3445; assay: Antibacterial activity (MIC), P. aeruginosa IFO 3445; type: cell-based; settings: Pseudomonas aeruginosa, IFO3445, Pseudomonas aeruginosa IFO 3445, Gram -; read-out: Minimum inhibitory concentration (MIC)
Description: as §1

[11] = system: Morganella morganii IFO 3848; assay: Antibacterial activity (MIC), Morganella morganii IFO 3848; type: cell-based; settings: Morganella morganii, IFO3848, Morganella morganii IFO 3848, Gram -; read-out: Minimum inhibitory concentration (MIC)
Description: as §1

[12] = system: Escherichia coli NIHJ JC-2; assay: Antibacterial activity (MIC), E. coli NIHJ JC-2; type: cell-based; settings: NIHJJC2; Escherichia coli NIHJ JC-2, Gram -; read-out: Minimum inhibitory concentration (MIC)
Description: as §1

[13] = system: Streptococcus faecalis IID 682; assay: Antibacterial activity (MIC), Streptococcus faecalis IID 682; type: cell-based; settings: Enterococcus faecalis
Description: as §1

[14] = system: Staphylococcus aureus IID 803; assay: Antibacterial activity (MIC), S. aureus IID 803; type: cell-based; settings: IID803; Staphylococcus aureus IID 803, Gram +; read-out: Minimum inhibitory concentration (MIC)
Description: as §1

[15] = system: Escherichia coli KC-14; assay: Antibacterial activity (MIC), E. coli KC-14; type: cell-based; settings: KC14; Escherichia coli KC-14, Gram -; read-out: Minimum inhibitory concentration (MIC)
Description: as §1

[16] = system: Pseudomonas aeruginosa E-2; assay: Effect on treatment of general infectious disease, P. aeruginosa E-2 (Experiment 3); type: in vivo, ddY male mice infected with Pseudomonas aeruginosa; settings: E2, 168 h, oral, 1 h after i.p. infection, 3.1×10^4 CFU/mouse, survival after one week
Description: Pseudomonas aeruginosa E-2 (3.1×10^4 CFU/mouse)
as §2, §3

[17] = system: Proteus vulgaris OX-19; assay: Antibacterial activity (MIC), Proteus vulgaris OX-19; type: cell-based; settings: OX19; Proteus vulgaris OX-19, Gram -; read-out: Minimum inhibitory concentration (MIC)
Description: as §1

[18] = system: Proteus mirabilis IFO 3849; assay: Antibacterial activity (MIC), Proteus mirabilis IFO 3849; type: cell-based; settings: IFO3849; Proteus mirabilis IFO 3849, Gram -; read-out: Minimum inhibitory concentration (MIC)
Description: as §1

[19] = system: Klebsiella pneumoniae PCI-602; assay: Antibacterial activity (MIC), Klebsiella pneumoniae PCI-602; type: cell-based
Description: as §1

[20] = system: Micrococcus luteus ATCC 9341; assay: Antibacterial activity (MIC), Micrococcus luteus ATCC 9341; type: cell-based; settings: ATCC9341; Micrococcus luteus ATCC 9341, Gram +; read-out: Minimum inhibitory concentration (MIC)
Description: as §1

[21] = system: Pseudomonas aeruginosa E-2; assay: Antibacterial activity (MIC), P. aeruginosa E-2; type: cell-based; settings: E2; Pseudomonas aeruginosa E-2, Gram -; read-out: Minimum inhibitory concentration (MIC)
Description: as §1

[22] = system: Enterobacter cloacae 963; assay: Antibacterial activity (MIC), Enterobacter cloacae 963; type: cell-based; settings: Enterobacter cloacae, 963, Enterobacter cloacae 963, Gram -; read-out: Minimum inhibitory concentration (MIC)
Description: as §1

[23] = system: clinically isolated methicillin resistant Staphylococcus aureus; assay: MIC against clinically isolated methicillin resistant Staphylococcus aureus; type: cell-based; settings: 54 strains; for MIC50: minimum concentration for inhibiting growth of the strains by 50%; for MIC90: minimum concentration for inhibiting growth of the strains by 90%
Description: The compounds (A) and (J) of the present invention and the known compound (X) were dissolved in 0.1 N aqueous sodium hydroxide, and the known compound (Y) in sterilized distilled water, to prepare a solution of 5000 μg/ml in concentration each. The above solutions were then diluted with sterilized distilled water to prepare a standard solution with a concentration of the test compound: 1000 μg/ml each. The test was carried out by a method appointed by Japan Society of Chemotherapy (ibidem) to measure minimum inhibitory concentration (MIC) against 54 strains of clinically isolated methicillin resistant Staphylococcus aureus, from which there were calculated a range of MIC (MICrange) of the test compound against these resistant strains, a minimum concentration for inhibiting the growth of the strains by 50% (MIC50) and a minimum concentration for inhibiting the growth of the strains by 90% (MIC90).

[24] = system: Bacillus subtilis ATCC 6633; assay: Antibacterial activity (MIC), Bacillus subtilis ATCC 6633; type: cell-based; settings: Bacillus subtilis, ATCC6633, Bacillus subtilis ATCC 6633, Gram +; read-out: Minimum inhibitory concentration (MIC)
Description: as §1

[25] = system: Salmonella typhimurium IID 971; assay: Antibacterial activity (MIC), Salmonella typhimurium IID 971; type: cell-based; settings: Salmonella enterica, read-out: Minimum inhibitory concentration (MIC)
Description: as §1

[26] = IID682, Streptococcus faecalis IID 682, Gram +, read-out: Minimum inhibitory concentration (MIC)
[27] = Salmonella typhimurium IID 971, Gram -
[28] = PCI602, Klebsiella pneumoniae PCI-602, Gram -, read-out: Minimum inhibitory concentration (MIC)

Structure (SMILES)	MIC [1]	MIC [2]	MIC [3]	MIC [4]	MIC [5]	ED50 [6]	MIC [7]	MIC [8]	MIC [9]	MIC [10]	MIC [11]	MIC [12]	MIC [14]	MIC [15]	MIC [17]	MIC [18]	MIC [20]	MIC [21]	MIC [22]	MIC [24]	further results
CN1CCN(c2c(F)cc3c(=O)c(C(=O)O)c4scc5n4c3c2OC5)CC1 [Compound (Y), 9,1-Epoxymethano-7-fluoro-8-(4-methyl-1-piperazinyl)-5-oxo-5H-thiazolo[3,2-a]quinoline-4-carboxylic acid hydrochloride, reference compound]	0.05 µg/mL	0.2 µg/mL	0.39 µg/mL	0.2 µg/mL	0.2 µg/mL	11.7 mg/kg	0.39 µg/mL	0.1 µg/mL	0.78 µg/mL	1.56 µg/mL	0.1 µg/mL	0.1 µg/mL	0.2 µg/mL	0.1 µg/mL	0.05 µg/mL	0.2 µg/mL	1.56 µg/mL	0.78 µg/mL	0.1 µg/mL	0.1 µg/mL	MIC [13, 26]: 0.78 µg/mL; ED50 [16]: 11.7 mg/kg; MIC ([19]; Klebsiella pneumoniae, PCI602, read-out: Minimum inhibitory concentration (MIC)): 0.025 µg/mL; MIC [23]: 0.05 to 0.39 µg/mL; MIC50 [23]: 0.1 µg/mL; MIC90 [23]: 0.2 µg/mL; MIC [25, 27]: 0.05 µg/mL
CC1COc2c(N3CCN(C)CC3)c(F)cc3c(=O)c(C(=O)O)cn1c23 (stereo not shown) [Compound (X), 9-Fluoro-3-methyl-10-(4-methyl-1-piperazinyl)-7-oxo-2,3-dihydro-7H-pyrido[1,2,3-de][1,4]-benzoxazine-6-carboxylic acid, reference compound]	0.05 µg/mL (≈ 0.138 µM)	0.39 µg/mL (≈ 1.08 µM)	0.78 µg/mL (≈ 2.16 µM)	0.39 µg/mL (≈ 1.08 µM)	0.39 µg/mL (≈ 1.08 µM)	14 mg/kg	0.78 µg/mL (≈ 2.16 µM)	0.1 µg/mL (≈ 0.277 µM)	1.56 µg/mL (≈ 4.32 µM)	1.56 µg/mL (≈ 4.32 µM)	0.1 µg/mL (≈ 0.277 µM)	0.1 µg/mL (≈ 0.277 µM)	0.39 µg/mL (≈ 1.08 µM)	0.1 µg/mL (≈ 0.277 µM)	0.05 µg/mL (≈ 0.138 µM)	0.39 µg/mL (≈ 1.08 µM)	3.13 µg/mL (≈ 8.66 µM)	1.56 µg/mL (≈ 4.32 µM)	0.2 µg/mL (≈ 0.553 µM)	0.1 µg/mL (≈ 0.277 µM)	MIC [13, 26]: 1.56 µg/mL (≈ 4.32 µM); ED50 [16]: 14 mg/kg; MIC [19, 28]: 0.05 µg/mL (≈ 0.138 µM); MIC [23]: 0.39 to 1.56 µg/mL (≈ 1.08 to 4.32 µM); MIC50 [23]: 0.78 µg/mL (≈ 2.16 µM); MIC90 [23]: 1.56 µg/mL (≈ 4.32 µM); MIC [25, 27]: 0.05 µg/mL (≈ 0.138 µM)
CN1Cc2csc3c(C(=O)O)c(=O)c4cc(F)c(N5CCC(O)C5)c1c4n23 (stereo not shown) [Compound (G), 9,1-(Methylimino)methano-7-fluoro-8-(3-hydroxy-1-pyrrolidinyl)-5-oxo-5H-thiazolo[3,2-a]quinoline-4-carboxylic acid]	0.05 µg/mL (≈ 0.128 µM)	0.78 µg/mL (≈ 2 µM)	0.78 µg/mL (≈ 2 µM)	0.006 µg/mL (≈ 0.0154 µM)	0.0125 µg/mL (≈ 0.0321 µM)	–	0.0125 µg/mL (≈ 0.0321 µM)	0.2 µg/mL (≈ 0.514 µM)	0.39 µg/mL (≈ 1 µM)	0.78 µg/mL (≈ 2 µM)	0.2 µg/mL (≈ 0.514 µM)	0.1 µg/mL (≈ 0.257 µM)	0.0125 µg/mL (≈ 0.0321 µM)	0.1 µg/mL (≈ 0.257 µM)	0.0125 µg/mL (≈ 0.0321 µM)	0.1 µg/mL (≈ 0.257 µM)	0.39 µg/mL (≈ 1 µM)	0.78 µg/mL (≈ 2 µM)	0.2 µg/mL (≈ 0.514 µM)	0.006 µg/mL (≈ 0.0154 µM)	MIC ([13]; IID682, read-out: Minimum inhibitory concentration (MIC)): 0.05 µg/mL (≈ 0.128 µM); MIC [19, 28]: 0.006 µg/mL (≈ 0.0154 µM); MIC [25]: 0.05 µg/mL (≈ 0.128 µM)
